Source: ChEMBL document CHEMBL3045488, “3D-QSAR STUDIES ON SUBSTITUTED DIHYDROPYRIDINES FOR THEIR 1A-ADRENERGIC RECEPTOR BINDING AFFINITY” (Med Chem Res, 2004)

target: T1, Alpha-1A adrenergic receptor (Homo sapiens, UniProt P35348); assay: Binding affinity to Homo sapiens (human) alpha1A adrenergic receptor
T1 sequence (P35348 whole entry): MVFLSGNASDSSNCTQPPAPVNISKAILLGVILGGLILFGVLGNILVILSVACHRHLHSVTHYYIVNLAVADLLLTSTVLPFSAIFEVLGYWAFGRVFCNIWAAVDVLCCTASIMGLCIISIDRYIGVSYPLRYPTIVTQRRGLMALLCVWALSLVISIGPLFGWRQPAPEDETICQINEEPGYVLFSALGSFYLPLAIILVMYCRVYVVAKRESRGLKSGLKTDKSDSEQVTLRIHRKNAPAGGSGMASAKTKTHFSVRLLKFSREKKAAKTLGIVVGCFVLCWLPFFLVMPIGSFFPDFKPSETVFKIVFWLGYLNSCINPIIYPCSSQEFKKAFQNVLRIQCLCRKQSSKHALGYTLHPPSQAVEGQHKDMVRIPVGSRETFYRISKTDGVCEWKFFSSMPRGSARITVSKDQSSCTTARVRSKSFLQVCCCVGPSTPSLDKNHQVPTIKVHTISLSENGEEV

Row | Structure (SMILES) | Ki
1 | COC(=O)C1(c2ccccc2)CCN(CCCNC(=O)C2=C(C)NC(C)=C(C(=O)OCCO)C2c2ccc([N+](=O)[O-])cc2)CC1 (stereo unspecified) | 3.63 nM
2 | COC(=O)C1=C(C)NC(C)=C(C(=O)NCCCN2CCC(c3ccccc3)CC2)C1c1ccc([N+](=O)[O-])cc1 (racemic) | 0.229 nM
3 | COC(=O)C1=C(C)NC(C)=C(C(=O)NCCCN2CCC(c3ccccc3)CC2)C1c1ccc(Cl)c([N+](=O)[O-])c1 (racemic) | 0.525 nM
4 | COC(=O)C1=C(C)NC(C)=C(C(=O)NCCCN2CCC(c3ccccc3)(c3ccccc3)CC2)C1c1ccc(C)cc1 (racemic) | 1.38 nM
5 | COC(=O)C1=C(C)NC(C)=C(C(=O)NCCCCN2CCC(c3ccccc3)(c3ccccc3)CC2)C1c1ccc([N+](=O)[O-])cc1 (racemic) | 14.8 nM
6 | COC(=O)C1=C(C)NC(C)=C(C(=O)NCCCN2CCC(C(=O)OC)(c3ccccc3)CC2)C1c1ccc([N+](=O)[O-])cc1 (stereo unspecified) | 3.55 nM
